Test system: mice suffering from NEC
Test: Treatment of necrotizing enterocolitis (NEC) induced in mice by a 5 day protocol of formula (gavage) feeding and hypoxia
Type: in vivo, mice (C57BL/6)
Procedure: Ten day-old breastfed SERT knockout mice, TPH1 knockout mice and wildtype littermate mice (C57BL/6) were subjected to a 5 day protocol of formula (gavage) feeding and hypoxia. This protocol reproducibly induces NEC in mice. Weights of all groups were monitored daily and cytokines were analyzed in the distal ileum at day 5. This experiment was then repeated using two groups of mice that received 100 mg/kg or 200 mg/kg of (2S)-ethyl 2-amino-3-(4-(2-amino-6-(2,2,2-trifluoro-1-(3′-fluoro-[1,1′-biphenyl]-4-yl)ethoxy)pyrimidin-4-yl)phenyl)propanoate (LP-920540), and a control group that received vehicle.

CCOC(=O)[C@@H](N)Cc1ccc(-c2cc(OC(c3ccc(-c4cccc(F)c4)cc3)C(F)(F)F)nc(N)n2)cc1 (stereo partly drawn) [LP-920540, (2S)-ethyl 2-amino-3-(4-(2-amino-6-(2,2,2-trifluoro-1-(3′-fluoro-[1,1′-biphenyl]-4-yl)ethoxy)pyrimidin-4-yl)phenyl)propanoate]
weight loss versus vehicle-treated animals (FIG. 1) (100 or 200 mg/kg, five days of the experiment): lost significantly less weight
mortality (FIG. 2) (100 or 200 mg/kg, vehicle treated animals 50%): 5-10%
levels of transcripts encoding IL-6 versus vehicle-treated mice (distal ileum at day 5): significantly less upregulated
levels of transcripts encoding IL-18 versus vehicle-treated mice (distal ileum at day 5): significantly less upregulated
